In assay [1] the test system is biosynthesis of leukotrienes. The assay is described as follows: Inhibition of leukotriene biosynthesis in vivo after oral administration, rat peritoneal anaphylaxis model. To be noted: percent inhibition vs mean of control group, oral gavage 100 μmoles/kg one hour prior to antigen challenge, peritoneal fluids 15 minutes after challenge. On the procedure: Inhibition of the biosynthesis of leukotrienes in vivo after oral administration of compound was determined using a rat peritoneal anaphylaxis model in a similar manner as that described by Young and coworkers (Young, P. R.; Dyer, R. D.; Carter, G. W. Fed. Proc., Fed. Am. Soc. Exp. Biol. 1985, 44, 1185). In this model rats were injected intraperitoneally (ip) with rabbit antibody to bovine serum albumin (BSA) and three hours later injected ip with BSA to induce an antigen-antibody response. Rats were sacrificed 15 minutes after this challenge and the peritoneal fluids were collected and analyzed for leukotriene levels. Test compounds were administered by gavage one hour prior to the antigen challenge. Percent inhibition values were determined by comparing the treatment group to the mean of the control group.

The target in assay [2] is T1, 5-Lipoxygenase (Homo sapiens, UniProt P09917).
T1 construct: from tissue; host or cells: human heparinized whole blood (endogenous enzyme of the blood leukocytes)
T1 sequence (P09917 1-674): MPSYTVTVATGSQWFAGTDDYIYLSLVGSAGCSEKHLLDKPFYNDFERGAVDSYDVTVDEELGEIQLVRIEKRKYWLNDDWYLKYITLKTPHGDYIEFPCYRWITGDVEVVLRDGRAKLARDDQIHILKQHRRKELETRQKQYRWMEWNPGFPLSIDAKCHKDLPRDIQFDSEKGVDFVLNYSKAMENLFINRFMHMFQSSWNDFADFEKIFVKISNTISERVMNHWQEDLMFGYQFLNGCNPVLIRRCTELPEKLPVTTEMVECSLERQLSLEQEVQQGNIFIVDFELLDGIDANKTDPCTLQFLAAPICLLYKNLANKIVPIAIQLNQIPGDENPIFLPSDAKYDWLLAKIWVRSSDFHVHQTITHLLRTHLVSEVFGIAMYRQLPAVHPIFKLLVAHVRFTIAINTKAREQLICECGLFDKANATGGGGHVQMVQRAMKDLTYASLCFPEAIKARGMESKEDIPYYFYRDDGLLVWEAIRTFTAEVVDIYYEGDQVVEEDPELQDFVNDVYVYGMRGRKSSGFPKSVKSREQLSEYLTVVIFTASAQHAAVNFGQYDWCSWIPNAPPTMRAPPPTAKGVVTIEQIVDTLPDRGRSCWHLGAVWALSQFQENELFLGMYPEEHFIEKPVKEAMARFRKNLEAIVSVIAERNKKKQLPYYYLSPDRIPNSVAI
The assay is described as follows: Calcium ionophore-induced LTB4 biosynthesis in human whole blood. The format is cell-based. To be noted: human heparinized whole blood, 15 min preincubation at 37° C., A23187 8.3 μM, 30 min, LTB4 by radioimmunoassay; read-out: IC50 against 5-Lipoxygenase from Stimulated LTB4 Formation in Human Whole Blood. On the procedure: Inhibition of leukotriene biosynthesis was evaluated in an assay, involving calcium ionophore-induced LTB4 biosynthesis expressed human whole blood. […] The methanol extract was analyzed for LTB4 using a commercially available radioimmunoassay.

A value given as a limit tells only on which side of the number the result lay.

A word on the inhibition: it is the percentage by which the read-out fell short of the control. The low end stands for little suppression, the high end for strong suppression. The IC50 is the concentration at which inhibition is half-maximal. In the case of `NC(=O)N(O)CC1CCCCC1` [Example 4, N-hydroxy-N-1-(1-cyclohexyl)methylurea], the inhibition at 100 µmol/kg in assay [1] was 64%. For the same compound, the IC50 in assay [2] was 1100 nM.
For `NC(=O)N(O)C[C@H]1C[C@@H]1C1CC1` (relative stereo) [Example 1, N-1-(trans-2-cyclopropylcyclopropylmethyl)-N-hydroxyurea] the same measures were 96% and under 300 nM.
On to `NC(=O)N(O)CC1CCCCCC1` [Example 5, N-hydroxy-N-1-(1-cycloheptyl)methylurea], for which the IC50 in assay [2] was under 1500 nM.
In assay [1], `NC(=O)N(O)CC1CCCC1` [Example 3, N-cyclopentylmethyl-N-hydroxyurea] registered an inhibition at 100 µmol/kg of 83%. Also, the IC50 in assay [2] is 700 nM.
For `NC(=O)N(O)CC1CCC1` [Example 2, N-cyclobutylmethyl-N-hydroxyurea] the same measures were 92% and 900 nM.
